# Reference: patent US20250009737A1, “COMPOUNDS AND METHODS FOR THE TARGETED DEGRADATION OF ANDROGEN RECEPTOR” (Arvinas Operations, Inc., priority 2023, published 2025)
# Read-outs that look alike come from different tables or passages of the source.
# How the values were obtained:
# OATP1B3 = molecular target: T1, OATP1B3 (Homo sapiens, UniProt Q9NPD5); experiment: OATP1B3 uptake transporter inhibition in MDCKII or HEK293 cells; type: in vitro ADME; parameters: expressed in transfected cells; host or cells: MDCKII or HEK293; settings: substrate Rosuvastatin (1 μM)
# T1 sequence (Q9NPD5 1-702): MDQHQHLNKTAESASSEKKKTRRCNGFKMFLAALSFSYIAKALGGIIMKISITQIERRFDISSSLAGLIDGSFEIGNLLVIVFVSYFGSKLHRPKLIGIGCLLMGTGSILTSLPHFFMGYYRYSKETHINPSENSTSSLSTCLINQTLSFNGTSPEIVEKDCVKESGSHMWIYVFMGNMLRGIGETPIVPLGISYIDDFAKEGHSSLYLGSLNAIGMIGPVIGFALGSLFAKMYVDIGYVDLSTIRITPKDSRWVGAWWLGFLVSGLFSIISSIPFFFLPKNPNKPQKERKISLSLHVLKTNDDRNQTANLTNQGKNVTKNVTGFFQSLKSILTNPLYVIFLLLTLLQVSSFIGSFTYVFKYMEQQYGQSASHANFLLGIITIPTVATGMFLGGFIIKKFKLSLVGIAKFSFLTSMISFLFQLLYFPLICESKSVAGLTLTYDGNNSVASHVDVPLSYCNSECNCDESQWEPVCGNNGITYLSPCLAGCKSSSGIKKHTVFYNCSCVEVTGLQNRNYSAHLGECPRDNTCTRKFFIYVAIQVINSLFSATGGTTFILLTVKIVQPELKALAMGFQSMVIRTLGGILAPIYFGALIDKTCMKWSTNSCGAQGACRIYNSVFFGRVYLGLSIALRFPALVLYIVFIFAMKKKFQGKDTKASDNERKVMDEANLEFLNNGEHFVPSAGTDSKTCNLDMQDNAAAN
# Procedure: (§1) In addition, the inhibition potential against efflux transporters (P-glycoprotein (Pgp) and breast cancer resistance protein (BCRP)) and uptake transporters (MATE1, MATE2-K, OATP1B1, OATP1B3, OAT1, OAT3, and OCT2) was assessed using single transporter over-expressed cell monolayers (MDCK II or HEK293) or inside-out vesicles.
# (§2) The potential of Compound A to inhibit Pgp or BCRP was tested for bidirectional transport of the probe substrates in Pgp or BCRP-expressed MDCKII and control monolayers at Compound A concentrations of 0.07-5 μM. Pgp and BCR inhibition were tested in inside-out membrane vesicles prepared from HEK293 overexpressing human Pgp and BCR at concentrations of 0.01-9 μM Compound A in the presence of 4 mM MgATP or MgAMP.
# major recombinant CYPs = experiment: Incubation with recombinant human CYP enzymes; type: in vitro ADME; settings: up to 25 min
# Procedure: Metabolite profiling was conducted in incubations of Compound A (2 and 10 μM) with HLM (up to 60 min), human hepatocyte suspension (up to 240 min) and human plasma (up to 360 min). In addition, Compound A (2 μM) was incubated with recombinant human CYP enzymes CYP1A2, CYP2A6, CYP2B6, CYP2C8, CYP2C9, CYP2C19, CYP2D6, CYP2E1, CYP3A4 and CYP3A5.
# The DDI potential of Compound A as a victim via CYP mediated pathways was examined in HLM, human hepatocyte suspensions, and human recombinant CYP enzymes.
# human hepatocytes = experiment: Hepatocyte viability, upfront MTT assay; type: cell-based; settings: 0.03-30 μM, after 2 days treatment
# Procedure: Positive control inducers behaved as expected (Table 1). Maximal 2.5-8.8-fold induction (4-6% of positive control response) in CYP3A4 mRNA were found at 0.1-0.3 μM in all three donors, and 3.1-fold for CYP2C8 mRNA in one of three lots (donor 3 only) at 0.1 μM (28% of positive control response). The induction response was attenuated at higher concentrations (Table 1).
# CYP3A = CYP3A (Homo sapiens, UniProt P08684); experiment: Direct and time-dependent CYP3A inhibition in pooled human liver microsomes; type: in vitro ADME; settings: pooled HLM, read-out: IC50, No Pre-incubation
# Procedure: The induction potential of Compound A on CYP enzymes was assessed in cryopreserved human hepatocytes from three donors. Following treatment for with Compound A at concentrations of 0.03-30 μM for 48 hours, mRNA levels for CYP1A2, 2B6, 2C8, 2C9, 2C19, and 3A4 were determined by semiquantitative real-time polymerase chain reaction (PCR). Test article concentrations during 24-hour incubation were determined. The potential of Compound A to cause direct and time-dependent inhibition (TDI) of the activities of CYP1A2, 2B6, 2C8, 2C9, 2C19, 2D6, and 3A4 was evaluated in pooled human liver microsomes (HLM) at 0.2-15 μM. Probe substrate concentrations around Km were used for direction inhibition and initial TDI assays. For TDI assay, Compound A was pre-incubated with pooled HLM with and without NADPH for 30 minutes prior to incubation with a single concentration of probe substrate.
# BCRP = molecular target: T2, BCRP (Homo sapiens, UniProt Q9UNQ0); experiment: BCRP inhibition, bidirectional transport in BCRP-expressed MDCKII monolayers; type: in vitro ADME; parameters: expressed in transfected cells; host or cells: MDCKII
# T2 sequence (Q9UNQ0 1-655): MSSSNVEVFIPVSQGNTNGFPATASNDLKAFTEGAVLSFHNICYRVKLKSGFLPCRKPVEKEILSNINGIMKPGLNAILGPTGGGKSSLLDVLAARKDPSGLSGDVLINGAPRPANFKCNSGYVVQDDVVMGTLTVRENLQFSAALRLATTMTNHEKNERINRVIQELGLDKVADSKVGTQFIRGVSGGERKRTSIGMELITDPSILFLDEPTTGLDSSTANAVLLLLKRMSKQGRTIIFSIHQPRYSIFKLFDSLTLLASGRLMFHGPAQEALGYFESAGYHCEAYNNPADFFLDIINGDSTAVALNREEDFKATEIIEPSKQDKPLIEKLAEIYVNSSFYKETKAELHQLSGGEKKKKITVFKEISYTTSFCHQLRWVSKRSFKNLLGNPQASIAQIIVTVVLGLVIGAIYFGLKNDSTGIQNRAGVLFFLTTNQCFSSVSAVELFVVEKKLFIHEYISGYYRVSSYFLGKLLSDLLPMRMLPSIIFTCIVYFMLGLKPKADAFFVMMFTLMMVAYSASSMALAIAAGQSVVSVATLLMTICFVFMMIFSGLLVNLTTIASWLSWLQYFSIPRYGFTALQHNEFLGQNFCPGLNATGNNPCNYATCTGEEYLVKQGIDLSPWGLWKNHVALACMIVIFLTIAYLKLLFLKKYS
# Procedure: as §1, §2
# CYP3A, sequence (P08684 2-503): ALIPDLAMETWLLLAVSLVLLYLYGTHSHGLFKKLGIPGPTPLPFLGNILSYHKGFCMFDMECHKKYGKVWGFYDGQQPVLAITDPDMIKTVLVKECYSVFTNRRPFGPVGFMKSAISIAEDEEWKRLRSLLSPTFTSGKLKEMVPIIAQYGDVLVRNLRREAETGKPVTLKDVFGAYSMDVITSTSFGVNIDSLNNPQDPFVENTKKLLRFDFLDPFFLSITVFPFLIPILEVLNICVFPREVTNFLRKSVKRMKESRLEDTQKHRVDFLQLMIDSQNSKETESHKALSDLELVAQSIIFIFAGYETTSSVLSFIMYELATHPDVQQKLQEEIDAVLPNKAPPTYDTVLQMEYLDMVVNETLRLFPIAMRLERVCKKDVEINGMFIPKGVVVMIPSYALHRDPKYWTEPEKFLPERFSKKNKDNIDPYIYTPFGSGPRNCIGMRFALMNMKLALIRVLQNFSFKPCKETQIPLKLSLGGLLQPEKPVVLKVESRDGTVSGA
compound,measurement,setting,value
"COc1cc(O[C@H]2C(C)(C)[C@H](NC(=O)c3ccc(N4CCC(CN5CCN(c6ccc(C(=O)N[C@H]7CCC(=O)NC7=O)c(F)c6)CC5)CC4)cc3)C2(C)C)ccc1C#N [Compound A, 4-(4-((1-(4-(((1R,3R)-3-(4-cyano-3-methoxyphenoxy)-2,2,4,4-tetramethylcyclobutyl)carbamoyl)phenyl)piperidin-4-yl)methyl)piperazin-1-yl)-N—((S)-2,6-dioxopiperidin-3-yl)-2-fluorobenzamide]",IC50,OATP1B3,> 3.75 µM
same,Stability in major recombinant CYPs,major recombinant CYPs,relatively stable
same,Hepatocyte viability,human hepatocytes,no significant decrease
same,IC50,"CYP3A; probe midazolam (2 μM), substrate Midazolam 2 μM",> 15 µM
same,IC50,"CYP3A; probe testosterone (50 μM), substrate Testosterone 50 μM",> 15 µM
same,inhibition at 1 µM,"BCRP; BCRP-expressed MDCKII cell monolayers, probe Prazosin (1 μM), Monolayers, substrate Prazosin (1 μM), read-out: Maximal % Inhibition",54%
same,IC50,BCRP; monolayer assays,1.55 µM
